Results from patent US6355799B1, “Substituted benzene compounds, process for their preparation, and herbicidal and defoliant compositions containing them” (ISK Americas Incorporated, priority 1997, dated 2002).

Experiments:
Format in all cases: in vivo
[1] = test system: redroot pigweed (Amaranthus retroflexus, AMARE); assay: Pre-emerge test, greenhouse herbicide activity screening; conditions: for Pre-emerge Herbicidal Activity, phytotoxicity rating (0-100), AMARE: rated 14 days after application, 0 = no damage, 100 = complete death; for phytotoxicity rating AMARE: pre-emerge, 14 days after application, rating scale 0-100
How it was run: (§1)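 Compounds in acetone were track-sprayed at 15-1000 g ai/ha (187 l/ha) on sandy loam pots: pre-emerge one day after seeding, post-emerge at 2-3 leaf stage with 0.25% v/v non-ionic surfactant. Phytotoxicity was rated 14 days later on a 0 (no damage) to 100 (complete death) scale.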

[2] = test system: velvetleaf (Abutilon theophrasti, ABUTH); assay: as above; conditions: for Pre-emerge Herbicidal Activity, phytotoxicity rating (0-100), ABUTH: rated 14 days after application, 0 = no damage, 100 = complete death; for phytotoxicity rating ABUTH: pre-emerge, 14 days after application, rating scale 0-100
How it was run: (§2)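 Plants grown in 10 cm pots of sandy loam mix received acetone-dissolved compounds through a moving flat-fan nozzle. Doses ranged from 15 to 1000 g ai/ha. Pre-emerge pots were seeded one day earlier, post-emerge pots 8–21 days earlier. Fourteen days on, each pot was graded 0–100 for damage.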

[3] = test system: johnsongrass (Sorghum halepense, SORHA); assay: as above; conditions: for Pre-emerge Herbicidal Activity, phytotoxicity rating (0-100), SORHA: rated 14 days after application, 0 = no damage, 100 = complete death; for phytotoxicity rating SORHA: pre-emerge, 14 days after application, rating scale 0-100
How it was run: as §2

[4] = test system: lambsquarters (Chenopodium album, CHEAL); assay: as above; conditions: for Pre-emerge Herbicidal Activity, phytotoxicity rating (0-100), CHEAL: rated 14 days after application, 0 = no damage, 100 = complete death; for phytotoxicity rating CHEAL: pre-emerge, 14 days after application, rating scale 0-100
How it was run: as §2

[5] = test system: common ragweed (Ambrosia artemisizfolia L., AMBEL); assay: as above; conditions: for Pre-emerge Herbicidal Activity, phytotoxicity rating (0-100), AMBEL: rated 14 days after application, 0 = no damage, 100 = complete death; for phytotoxicity rating AMBEL: pre-emerge, 14 days after application, rating scale 0-100
How it was run: as §2

[6] = test system: barnyardgrass (Echinochloa crus-galli, ECHCG); assay: as above; conditions: for Pre-emerge Herbicidal Activity, phytotoxicity rating (0-100), ECHCG: rated 14 days after application, 0 = no damage, 100 = complete death; for phytotoxicity rating ECHCG: pre-emerge, 14 days after application, rating scale 0-100
How it was run: as §2

[7] = test system: green foxtail (Setaria viridis, SETVI); assay: as above; conditions: for Pre-emerge Herbicidal Activity, phytotoxicity rating (0-100), SETVI: rated 14 days after application, 0 = no damage, 100 = complete death; for phytotoxicity rating SETVI: pre-emerge, 14 days after application, rating scale 0-100
How it was run: as §2

[8] = test system: large crabgrass (Digitaria sanguinalis, DIGSA); assay: as above; conditions: for Pre-emerge Herbicidal Activity, phytotoxicity rating (0-100), DIGSA: rated 14 days after application, 0 = no damage, 100 = complete death; for phytotoxicity rating DIGSA: pre-emerge, 14 days after application, rating scale 0-100
How it was run: as §2

[9] = test system: sicklepod (Cassia obtusifolia, CASOB); assay: as above; conditions: for Pre-emerge Herbicidal Activity, phytotoxicity rating (0-100), CASOB: rated 14 days after application, 0 = no damage, 100 = complete death; for phytotoxicity rating CASOB: pre-emerge, 14 days after application, rating scale 0-100
How it was run: as §2

[10] = test system: ivyleaf morningglory (Ipomoea hederacea, IPOHE); assay: as above; conditions: for Pre-emerge Herbicidal Activity, phytotoxicity rating (0-100), IPOHE: rated 14 days after application, 0 = no damage, 100 = complete death; for phytotoxicity rating IPOHE: pre-emerge, 14 days after application, rating scale 0-100
How it was run: as §2

[11] = test system: upland rice (Oryza sp., var. Tebonnet, RICE); assay: Pre-emerge test, crop safety; conditions: for Pre-emerge phytotoxicity rating (0-100), crop damage, RICE: rated 14 days after application, 0 = no damage, 100 = complete death; for phytotoxicity rating RICE: pre-emerge, 14 days after application, rating scale 0-100
How it was run: as §1

[12] = test system: field corn (Zea mays L., var. Dekalb 535, CORN); assay: Pre-emerge test, crop safety; conditions: for Pre-emerge phytotoxicity rating (0-100), crop damage, CORN: rated 14 days after application, 0 = no damage, 100 = complete death; for phytotoxicity rating CORN: pre-emerge, 14 days after application, rating scale 0-100
How it was run: as §1

Structure (SMILES): CCOc1ccc(C(=O)Nc2c(OC)c(Cl)cc(F)c2-n2c(=O)cc(C(F)(F)F)n(C)c2=O)cc1 [2-64]
- Pre-emerge Herbicidal Activity, phytotoxicity rating (0-100), AMARE ([1]; 63 g ai/ha): 90
- Pre-emerge Herbicidal Activity, phytotoxicity rating (0-100), AMARE ([1]; 250 g ai/ha): 100
- Pre-emerge Herbicidal Activity, phytotoxicity rating (0-100), ABUTH ([2]; 63 g ai/ha): 100
- Pre-emerge Herbicidal Activity, phytotoxicity rating (0-100), ABUTH ([2]; 250 g ai/ha): 100
- Pre-emerge Herbicidal Activity, phytotoxicity rating (0-100), SORHA ([3]; 63 g ai/ha): 10
- Pre-emerge Herbicidal Activity, phytotoxicity rating (0-100), SORHA ([3]; 250 g ai/ha): 50
- Pre-emerge Herbicidal Activity, phytotoxicity rating (0-100), CHEAL ([4]; 63 g ai/ha): 90
- Pre-emerge Herbicidal Activity, phytotoxicity rating (0-100), CHEAL ([4]; 250 g ai/ha): 100
- Pre-emerge Herbicidal Activity, phytotoxicity rating (0-100), AMBEL ([5]; 63 g ai/ha): 0
- Pre-emerge Herbicidal Activity, phytotoxicity rating (0-100), AMBEL ([5]; 250 g ai/ha): 60
- Pre-emerge Herbicidal Activity, phytotoxicity rating (0-100), ECHCG ([6]; 63 g ai/ha): 0
- Pre-emerge Herbicidal Activity, phytotoxicity rating (0-100), ECHCG ([6]; 250 g ai/ha): 60
- Pre-emerge Herbicidal Activity, phytotoxicity rating (0-100), SETVI ([7]; 63 g ai/ha): 100
- Pre-emerge Herbicidal Activity, phytotoxicity rating (0-100), SETVI ([7]; 250 g ai/ha): 100
- Pre-emerge Herbicidal Activity, phytotoxicity rating (0-100), DIGSA ([8]; 63 g ai/ha): 40
- Pre-emerge Herbicidal Activity, phytotoxicity rating (0-100), DIGSA ([8]; 250 g ai/ha): 70
- Pre-emerge Herbicidal Activity, phytotoxicity rating (0-100), CASOB ([9]; 63 g ai/ha): 0
- Pre-emerge Herbicidal Activity, phytotoxicity rating (0-100), CASOB ([9]; 250 g ai/ha): 100
- Pre-emerge Herbicidal Activity, phytotoxicity rating (0-100), IPOHE ([10]; 63 g ai/ha): 0
- Pre-emerge Herbicidal Activity, phytotoxicity rating (0-100), IPOHE ([10]; 250 g ai/ha): 40
- Pre-emerge phytotoxicity rating (0-100), crop damage, RICE ([11]; 63 g ai/ha): 10
- Pre-emerge phytotoxicity rating (0-100), crop damage, RICE ([11]; 250 g ai/ha): 60
- Pre-emerge phytotoxicity rating (0-100), crop damage, CORN ([12]; 63 g ai/ha): 0
- Pre-emerge phytotoxicity rating (0-100), crop damage, CORN ([12]; 250 g ai/ha): 35

Structure (SMILES): CCOC(=O)C(Cl)Cc1c(OCC)c(Cl)cc(F)c1-n1c(=O)cc(C(F)(F)F)n(C)c1=O (stereo not drawn) [14-64]
- phytotoxicity rating AMARE ([1]; 63 g ai/ha): 100
- phytotoxicity rating AMARE ([1]; 250 g ai/ha): 100
- phytotoxicity rating ABUTH ([2]; 63 g ai/ha): 90
- phytotoxicity rating ABUTH ([2]; 250 g ai/ha): 100
- phytotoxicity rating SORHA ([3]; 63 g ai/ha): 0
- phytotoxicity rating SORHA ([3]; 250 g ai/ha): 20
- phytotoxicity rating CHEAL ([4]; 63 g ai/ha): 60
- phytotoxicity rating CHEAL ([4]; 250 g ai/ha): 100
- phytotoxicity rating AMBEL ([5]; 63 g ai/ha): 20
- phytotoxicity rating AMBEL ([5]; 250 g ai/ha): 60
- phytotoxicity rating ECHCG ([6]; 63 g ai/ha): 0
- phytotoxicity rating ECHCG ([6]; 250 g ai/ha): 95
- phytotoxicity rating SETVI ([7]; 63 g ai/ha): 0
- phytotoxicity rating SETVI ([7]; 250 g ai/ha): 100
- phytotoxicity rating DIGSA ([8]; 63 g ai/ha): 50
- phytotoxicity rating DIGSA ([8]; 250 g ai/ha): 100
- phytotoxicity rating CASOB ([9]; 63 g ai/ha): 0
- phytotoxicity rating CASOB ([9]; 250 g ai/ha): 0
- phytotoxicity rating IPOHE ([10]; 63 g ai/ha): 0
- phytotoxicity rating IPOHE ([10]; 250 g ai/ha): 0
- phytotoxicity rating RICE ([11]; 63 g ai/ha): 0
- phytotoxicity rating RICE ([11]; 250 g ai/ha): 10
- phytotoxicity rating CORN ([12]; 63 g ai/ha): 0
- phytotoxicity rating CORN ([12]; 250 g ai/ha): 0
